From ChEMBL document CHEMBL1147717, “Development of activity-based probes for trypsin-family serine proteases” (Bioorg Med Chem Lett, 2006) come the findings set out here.

One experiment addresses Trypsin (Homo sapiens, UniProt P07477+P07478+P35030). The experiment is described as follows: Inhibition of trypsin. Type of experiment: protein assay.
For the next experiment, the target named is Tryptase beta-1 (Homo sapiens, UniProt Q15661). The experiment is described as follows: Inhibition of beta tryptase. The following applies: read-out: Ki app.
A further experiment addresses Prothrombin (Homo sapiens, UniProt P00734). The experiment is described as follows: Inhibition of thrombin. The following applies: read-out: Ki app.
The next experiment addresses Plasminogen (Homo sapiens, UniProt P00747). The experiment is described as follows: Inhibition of plasmin. The note with it: read-out: Ki app.

Sequence of Plasminogen (P00747 97-580 limits assumed): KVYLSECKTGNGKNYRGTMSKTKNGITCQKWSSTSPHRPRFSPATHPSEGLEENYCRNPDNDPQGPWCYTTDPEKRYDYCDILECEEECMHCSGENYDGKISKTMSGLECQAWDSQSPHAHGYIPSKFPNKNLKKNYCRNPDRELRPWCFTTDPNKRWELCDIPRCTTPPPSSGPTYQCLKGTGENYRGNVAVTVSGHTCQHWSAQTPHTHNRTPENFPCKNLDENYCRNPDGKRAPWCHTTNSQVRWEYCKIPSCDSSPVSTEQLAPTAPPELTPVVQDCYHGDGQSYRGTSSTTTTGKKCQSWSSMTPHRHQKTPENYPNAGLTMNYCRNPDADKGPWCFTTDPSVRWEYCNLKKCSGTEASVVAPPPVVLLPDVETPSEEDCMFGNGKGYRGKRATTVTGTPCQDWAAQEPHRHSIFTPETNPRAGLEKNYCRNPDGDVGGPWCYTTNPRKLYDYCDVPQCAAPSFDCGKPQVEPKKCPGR
Sequence of Plasminogen (P00747 581-810 limits assumed): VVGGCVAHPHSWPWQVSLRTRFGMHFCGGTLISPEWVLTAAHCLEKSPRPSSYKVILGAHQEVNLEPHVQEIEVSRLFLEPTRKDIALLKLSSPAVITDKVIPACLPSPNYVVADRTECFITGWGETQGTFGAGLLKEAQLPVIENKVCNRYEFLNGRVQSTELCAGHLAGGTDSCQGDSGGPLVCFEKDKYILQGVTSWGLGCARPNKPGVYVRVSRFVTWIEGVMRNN
Sequence of Tryptase beta-1 (Q15661 whole entry): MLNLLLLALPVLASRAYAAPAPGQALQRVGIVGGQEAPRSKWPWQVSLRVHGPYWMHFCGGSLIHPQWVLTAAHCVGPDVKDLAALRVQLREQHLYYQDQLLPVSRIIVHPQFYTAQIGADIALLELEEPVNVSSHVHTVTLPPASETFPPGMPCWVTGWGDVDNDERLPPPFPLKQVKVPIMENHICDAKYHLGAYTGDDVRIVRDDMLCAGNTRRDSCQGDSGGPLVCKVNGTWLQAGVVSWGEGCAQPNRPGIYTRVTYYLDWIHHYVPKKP

For `NCCCC[C@@H](NC(=O)[C@@H]1CCCN1C(=O)CCOCCOCCOCCOCCNC(=O)CCCC[C@@H]1SC[C@@H]2NC(=O)N[C@@H]21)P(=O)(Oc1ccccc1)Oc1ccccc1`, at Trypsin, the Ki app was determined as 0.57 µM. The Ki at Tryptase beta-1 was determined as 6.2 µM; on Prothrombin, 1.07 µM; at Plasminogen, 2.9 µM.
For `NCCCC[C@@H](NC(=O)[C@H](CC(N)=O)NC(=O)CCOCCOCCOCCOCCNC(=O)CCCC[C@@H]1SC[C@@H]2NC(=O)N[C@@H]21)P(=O)(Oc1ccccc1)Oc1ccccc1`, in that order: 57.3 µM, 2.5 µM, over 100 µM and 4.03 µM.
